IC50 data for 17 molecules are collected here from US10022376B2 (Pfizer Inc., priority 2014, dated 2018).

In experiment [1] the test system is rhIL-2 stimulated STAT5 phosphorylation in isolated human T cells. Briefly: Human T Cell Assay: Inhibition of pSTAT5. It counts as cell-based. As for the experimental part: Human T Cell Assay: Inhibition of pSTAT5
An assay measuring the efficacy of JAK inhibitors on the functional response of recombinant human interleukin-2 (rhIL-2) stimulated STAT5 phosphorylation in isolated human T cells.
Human whole blood from individual donors was collected from the phlebotomy unit on-site. Peripheral venous blood (30-60 mL) from healthy volunteers of either sex was used as the source of T cells. T cell isolation from venous whole blood is routinely performed in a class II microbiological safety cabinet. Each sample was collected into between 3 and 6 10 mL Sodium Heparin Vacutainer tubes (BD #367874). The blood was poured into sterile 50 mL conicals (Corning #430828) and incubated with the T cell Rosette Sep Cocktail (Stemcell Technologies #15061) at 50 μL/mL antibody/blood ratio for 20 min. with shaking at room temperature. The blood/antibody mixture was then diluted 1:2 with PBS (Pfizer media prep)/2% FBS (Sigma #F4135) and 30 mL of the mixture was layered onto 15 mL Ficoll-Hypaque (GE Healthcare #17-1440-03) in 50 mL conical tubes. The tubes were then centrifuged at 1200×g for 20 min. at room temperature with no brake. Following centrifugation the T cells formed a buffy coat between the Ficoll-Hypaque and plasma layers. The plasma above the buffy coats was removed to within 5 mm of the buffy coat using a sterile Pasteur pipette. The buffy coats were then collected into fresh sterile 50 mL conical tubes containing 25 mL PBS/2% FBS (2 buffy coats per 50 mL conical). PBS/2% FBS was added to the buffy coat cells such that the final volume in the tube was 50 mL. The tubes were then centrifuged at 200×g for 15 min. at room temperature. The supernatant was discarded and the pellet re-suspended in 10-20 mL of DMEM (Pfizer media prep) Assay media/0.2% BSA (Miltenyi #130-091-376). A differential cell count was performed using a haemacytometer and cells were diluted to 1.1×10^6 T cells/ml in DMEM/0.2% BSA media. Compounds (10 mM-0.3 μM) were diluted with Hanks Balanced Salt Solution (HBSS) (Sigma #H6648) at 1:100 dilution. Immediately following cell isolation and compound dilution, 90 μl/well of T cells (˜1×10^6/ml) in assay medium (DMEM+0.2% BSA) was added to the VWR Deep well V bottom plate (#3906-520-300). 10 μl/well of compound (final concentration range of 10 μM-0.3 nM with 0.1% DMSO) or 0.1% DMSO in HBSS as controls was added to the appropriate wells. Plates were incubated for 1 hour at 37° C., 5% CO2 incubator. 10 μl of 3.3 μg/mL rhIL-2 (R&D Systems #202-IL) was added to the cells (300 ng/ml final assay concentration). Wells containing T cells, medium with 0.1% DMSO and no rhIL-2 were used as background controls. Plates were incubated for 15 min at 37° C. After rhIL-2 stimulation, 800 μL of cold PBS/0.1% BSA was added and the plates were centrifuged at 1400 rpm for 5 min at 4° C. Supernatant was aspirated and 100 μL of ice-cold MSD lysis buffer containing protease and phosphatase inhibitors from Phospho-STAT5a/b Tyr694 assay kit (Meso-Scale Discovery #K150IGD) was added to the cell pellet. Plates were shaken for 30 min. at 4° C. and then frozen overnight. The following day, cell lysates were assayed using the MSD ELISA kit protocol for detection of pSTAT5.
Data were collected and transformed into percent inhibition and calculated using the following formula: […]

Experiment [2] has as its system rhIFNγ stimulated STAT-3 phosphorylation in the A549 human epithelial cell line. The experiment can be described thus: A549 Cell Assay: Inhibition of pSTAT3. Format: cell-based. The settings on record: Homo sapiens; A549 cells. The procedure, abridged:
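A549 cells cultured 18 h were preincubated 1 h at 37° C with compound (0.3 nM to 10 μM, 0.1% DMSO) in DMEM with 0.2% BSA, then stimulated with 20 ng/mL rhIFNγ for 30 min. pSTAT3 Tyr705 in the lysates was measured by MSD immunoassay and expressed as percent inhibition.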

Structures can show the parent of a compound that is named as a salt.

One may read the IC50 as the concentration that gives 50% inhibition. As to `CCc1cc(O)c(F)cc1-c1cc2[nH]nc(C(=O)NC)c2c(NCc2ccccc2N(C)S(C)(=O)=O)n1` [Example 19, 6-(2-ethyl-5-fluoro-4-hydroxyphenyl)-N-methyl-4-({2-[methyl(methylsulfonyl)amino]benzyl}amino)-1H-pyrazolo[4,3-c]pyridine-3-carboxamide], the results for the IC50 in experiment [1] and in experiment [2] were 0.0202 µM and 0.0119 µM, respectively. For `CCc1cc(O)c(F)cc1-c1cc2[nH]nc(C(=O)NC)c2c(NCc2cc(O)ccc2N(C)S(C)(=O)=O)n1` [Example 31, 6-(2-Ethyl-5-fluoro-4-hydroxyphenyl)-4-({5-hydroxy-2-[methyl (methylsulfonyl)amino]benzyl}amino)-N-methyl-1H-pyrazolo[4,3-c]pyridine-3-carboxamide], in that order: 0.0482 µM and 0.074 µM. For `CCc1cc(O)c(F)cc1-c1cc2[nH]nc(C(=O)Nc3ccc(C)nc3)c2c(NCc2ccccc2N(C)S(C)(=O)=O)n1` [Example 56, 6-(2-ethyl-5-fluoro-4-hydroxyphenyl)-4-({2-[methyl(methylsulfonyl)amino]benzyl}amino)-N-(6-methylpyridin-3-yl)-1H-pyrazolo[4,3-c]pyridine-3-carboxamide], in that order: 0.0534 µM and 0.277 µM.

For the molecule `Cc1ccc(NC(=O)c2n[nH]c3cc(-c4cc(F)c(O)cc4CC(F)(F)F)nc(NCc4ccccc4N(C)S(C)(=O)=O)c23)cn1` [Example 76, 6-[5-Fluoro-4-hydroxy-2-(2,2,2-trifluoroethyl)phenyl]-4-({2-[methyl(methylsulfonyl)amino]-benzyl}amino)-N-(6-methylpyridin-3-yl)-1H-pyrazolo[4,3-c]pyridine-3-carboxamide], the figures for the half-inhibitory concentration (IC50) in experiment [1] and in experiment [2] were 0.121 µM and 0.325 µM, respectively. Consider `CN(c1ccccc1CNc1nc(-c2cc(F)c(O)cc2CC(F)(F)F)cc2[nH]nc(C(N)=O)c12)S(C)(=O)=O` [Example 77, 6-[5-Fluoro-4-hydroxy-2-(2,2,2-trifluoroethyl)phenyl]-4-({2-[methyl(methylsulfonyl)amino]benzyl}amino)-1H-pyrazolo[4,3-c]pyridine-3-carboxamide], for which the IC50 is 0.0599 µM in experiment [1] and 0.0329 µM in experiment [2]. Consider `CN(c1ccc(O)cc1CNc1nc(-c2cc(F)c(O)cc2CC(F)(F)F)cc2[nH]nc(C(N)=O)c12)S(C)(=O)=O` [Example 92, 6-[5-Fluoro-4-hydroxy-2-(2,2,2-trifluoroethyl)phenyl]-4-({5-hydroxy-2-[methyl(methylsulfonyl)amino]benzyl}amino)-1H-pyrazolo[4,3-c]pyridine-3-carboxamide], for which the IC50 came out at 0.343 µM in experiment [1] and 0.398 µM in experiment [2]. In the case of `CCc1cc(O)c(F)cc1-c1nc(NCc2ccccc2N(C)S(C)(=O)=O)c2c(C(=O)NC)n[nH]c2n1` [Example 93, 6-(2-Ethyl-5-fluoro-4-hydroxyphenyl)-N-methyl-4-((2-(N-methylmethylsulfonamido)benzyl)amino)-1H-pyrazolo[3,4-d]pyrimidine-3-carboxamide], the figures for the IC50 in experiment [1] and in experiment [2] were 0.0404 µM and 0.0319 µM, respectively. In the case of `CN(c1ccccc1CNc1nc(-c2cc(F)c(O)cc2CC(F)(F)F)nc2[nH]nc(C(N)=O)c12)S(C)(=O)=O` [Example 98, 6-(5-Fluoro-4-hydroxy-2-(2,2,2-trifluoroethyl)phenyl)-4-((2-(N-methylmethylsulfonamido)benzyl)amino)-1H-pyrazolo[3,4-d]pyrimidine-3-carboxamide], the IC50 worked out at 0.325 µM in experiment [1] and 0.724 µM in experiment [2].

As to `CCc1cc(O)c(F)cc1-c1cc2[nH]ncc2c(NCc2ccccc2N(C)S(C)(=O)=O)n1` [Example 131, N-[2-({[6-(2-Ethyl-5-fluoro-4-hydroxyphenyl)-1H-pyrazolo[4,3-c]pyridin-4-yl]amino}methyl)phenyl]-N-methylmethanesulfonamide], the results for the IC50 in experiment [1] and in experiment [2] were 0.0243 µM and 0.0074 µM, respectively.

For the molecule `CCc1cc(O)c(F)cc1-c1cc2[nH]ncc2c(NCc2cc(C)ccc2N(C)S(C)(=O)=O)n1` [Example 132, N-[2-({[6-(2-ethyl-5-fluoro-4-hydroxyphenyl)-1H-pyrazolo[4,3-c]pyridin-4-yl]amino}methyl)-4-methylphenyl]-N-methylmethanesulfonamide hydrochloride], the half-inhibitory concentration (IC50) was determined as 0.206 µM in experiment [1] and 0.257 µM in experiment [2]. For `CCc1cc(O)c(F)cc1-c1cc2[nH]ncc2c(NCc2cc(Cl)ccc2N(C)S(C)(=O)=O)n1` [Example 133, N-[4-chloro-2-({[6-(2-ethyl-5-fluoro-4-hydroxyphenyl)-1H-pyrazolo[4,3-c]pyridin-4-yl]amino}methyl)phenyl]-N-methylmethanesulfonamide hydrochloride], in that order: 0.0347 µM and 0.0101 µM. As for `CCc1cc(O)c(F)cc1-c1cc2[nH]ncc2c(NCc2c(F)cccc2N(C)S(C)(=O)=O)n1` [Example 134, N-[2-({[6-(2-ethyl-5-fluoro-4-hydroxyphenyl)-1H-pyrazolo[4,3-c]pyridin-4-yl]amino}methyl)-3-fluorophenyl]-N-methylmethanesulfonamide hydrochloride], inhibition in experiment [1] was half-maximal at 0.259 µM (IC50).

As for `CCc1cc(O)c(F)cc1-c1cc2[nH]ncc2c(N(C)Cc2ccccc2N(CC)S(C)(=O)=O)n1` [Example 145, N-Ethyl-N-[2-({[6-(2-ethyl-5-fluoro-4-hydroxyphenyl)-1H-pyrazolo[4,3-c]pyridin-4-yl](methyl)amino}methyl)phenyl]methanesulfonamide hydrochloride], the half-maximal inhibitory concentration (IC50) in experiment [1] was 0.157 µM; in experiment [2], 0.0157 µM. With `CCc1cc(O)c(F)cc1-c1cc2[nH]ncc2c(N(C)Cc2ccccc2N(C)S(C)(=O)=O)n1` [Example 146, N-[2-({[6-(2-Ethyl-5-fluoro-4-hydroxyphenyl)-1H-pyrazolo[4,3-c]pyridin-4-yl](methyl)amino}methyl)phenyl]-N-methylmethanesulfonamide hydrochloride], the half-inhibitory concentration (IC50) came to 0.0623 µM in experiment [1] and 0.0076 µM in experiment [2].

Consider `CCc1cc(O)c(F)cc1-c1cc2[nH]nc(-c3nnc(C)[nH]3)c2c(NCc2ccccc2N(C)S(C)(=O)=O)n1` [Example 165, N-[2-({[6-(2-Ethyl-5-fluoro-4-hydroxyphenyl)-3-(5-methyl-4H-1,2,4-triazol-3-yl)-1H-pyrazolo[4,3-c]pyridin-4-yl]amino}methyl)phenyl]-N-methylmethanesulfonamide], for which the IC50 in experiment [1] was found to be 0.0913 µM; in experiment [2], 0.567 µM. The like results for `Cc1ccc(-c2nnc(-c3n[nH]c4cc(-c5cc(F)c(O)cc5CC(F)(F)F)nc(NCc5ccccc5N(C)S(C)(=O)=O)c34)[nH]2)cn1` [Example 166, N-{2-[({6-[5-Fluoro-4-hydroxy-2-(2,2,2-trifluoroethyl)phenyl]-3-[5-(6-methylpyridin-3-yl)-4H-1,2,4-triazol-3-yl]-1H-pyrazolo[4,3-c]pyridin-4-yl}amino)methyl]phenyl}-N-methylmethanesulfonamide] were, in that order, 0.591 µM and 0.697 µM.

In the case of `CC(=O)N1CCc2[nH]c(-c3n[nH]c4nc(-c5cc(F)c(O)cc5CC(F)(F)F)nc(NCc5cc(O)ccc5N(C)S(C)(=O)=O)c34)nc2C1` [Example 170, N-{2-[({3-(5-Acetyl-4,5,6,7-tetrahydro-1H-imidazo[4,5-c]pyridin-2-yl)-6-[5-fluoro-4-hydroxy-2-(2,2,2-trifluoroethyl)phenyl]-1H-pyrazolo[3,4-d]pyrimidin-4-yl}amino)methyl]-4-hydroxyphenyl}-N-methylmethanesulfonamide], the figures for the IC50 in experiment [1] and in experiment [2] were 0.767 µM and 1.36 µM, respectively.
